Tests used:
neuropathic (SNI) rats = assay: Mechanical allodynia (von Frey, 50% paw withdrawal threshold) after spared nerve injury (SNI); assay type: in vivo, rat; conditions: 50 mg/kg per os
Description: Experiments were performed in male Sprague-Dawley rats (body weight: 250-300 g; Charles River Laboratories, St. Constant, QC, Canada) and adult male C57BL mice (body weight: 25-30 g; inbred). All animals were housed in small groups at a constant temperature of 22° C., with food and water provided ad libitum, and maintained under a 12 h light/dark cycle (lights on at 7:00 AM; lights off at 7:00 PM). All experimental procedures were conducted in accordance with the guidelines of the Canadian Council on Animal Care, and the protocols were approved by the Animal Care Committee at McGill University.
The different prodrug compounds as synthesized in Example 2 were tested and compared with Gabapentin (150 mg/kg, purchased from Sigma Aldrich, US). Prodrug was dissolved in saline, water, or a vehicle composed of 40% PEG400 and 60% water. Gabapentin was dissolved in a vehicle composed of 40% PEG400 and 60% water. All drugs (doses see the procedure descriptions below) were administrated per os (gavage) through a curved feeding tube (20 G for rats and 22 G for mice) at the beginning of the experiment unless otherwise specified. The dose of prodrug was chosen based on its pharmacokinetic properties, and the doses of Gabapentin were chosen from literature (Lopez-Canul, Palazzo et al. 2015).
Spared nerve injury was performed according to the method of (Decosterd I and Woolf CJ, 2000), see also Lopez-Canul et al., 2015. Rats and mice were anesthetized with isoflurane. The sciatic nerve was exposed at mid-thigh level distal to the trifurcation and freed of connective tissue; the three peripheral branches (sural, common peroneal, and tibial nerves) of the sciatic nerve were exposed without stretching nerve structures. Both tibial and common peroneal nerves were ligated and transected together. Tactile allodynia was absent in healthy (pre-surgery) and sham rats, and the mechanical withdrawal threshold in rats before SNI (pre-surgery) or sham was very close to the cutoff of dynamic plantar aesthesiometer (30 g) (Ugo Basile, Varese, Italy).
On day 14 after surgery, individual rats were placed in a test chamber (clear plastic wire mesh-bottomed cage) and allowed to acclimatize for 30 to 40 minutes. Von Frey filaments (Stoelting, Wood Dale, IL) were used to measure the 50% paw withdrawal threshold using the up-and-down method reported by {Chaplan, 1994 #399}. […] Lifting of the paw indicated a positive response and prompted the use of the […], whereas absence of paw withdrawal after 5 seconds indicated a negative response and prompted the next filament of increasing weight. This paradigm continued for 4 more measurements after the initial change of the behavioral response or until 5 consecutive negative or 4 consecutive positive responses. Based on observations on normal, unoperated, and sham-operated rats, the cutoff value of 15 g was selected as the upper limit for testing because stiffer hairs tended to raise the entire limb rather than to buckle, substantially changing the nature of the stimulus. The resulting scores were used to calculate the 50% response threshold using the formula proposed by Dixon. Allodynia was considered to be present when paw withdrawal thresholds were <4 g, and drugs raising this threshold were considered antiallodynic {Lopez-Canul, 2015}. Accordingly, all nerve ligated rats were verified to be allodynic, responding to a stimulus of <4 g. Rats without mechanical allodynia were excluded. After the determination of the basal response, allodynia was assessed at baseline, 0.5, 1, 1.5, 2, 2.5, 3, 4, 5, 6, 7, and 8 hours post-administration for each treatment described below. Groups of 5 to 6 rats per treatment were used, with each animal being used for 1 treatment only. […]

Solubility of Prodrug D = assay type: physicochemical
Description: The solubility and stability of Prodrug D as synthesized in Example 2 were studied.

mice (C57/BL) = assay: Elevated Plus Maze Test (EPMT); assay type: in vivo, mouse; parameters: key to closed arm time, difference between medians: Actual / closed arm time, difference between medians: Hodges-Lehmann: time in closed arms, in seconds (s); total distance, difference between medians: Actual / total distance, difference between medians: Hodges-Lehmann: unit not given here; conditions: 150 mg/kg oral gavage
Description: Prodrug D 150 mg/kg was dissolved in tap water per oral gavage. The solution was prepared <30 seconds before administration (100 μL administration volume).
Behavioral tests performed 2.5-3 hours after drug administration. 8 mice (C57/BL) per group were used received vehicle or Prodrug D.
The EPMT was used to assess anxiety-like reactivity as induced suppression of exploratory behavior. The maze was made of white Plexiglass and consisted of two open arms (16×5 cm) opposite each other and two walled arms (16×5×12 cm) opposite each other. […] The mice were each placed on the central platform facing one of the open arms. EPMT behavior was recorded for 5 min under bright white light (100 W). Behavioral endpoints that were analyzed included time spent in the open vs closed arms, frequency of open arm vs closed arm entries, time spent (s) on the central platform. Anxiolytic agents are known to increase open arm visits and time in the open arm. Anxiogenics increase closed arm visits.
The percentage of the time spent in the open arms was calculated employing the formula […] where OA represents the time (s) spent in open arms and CA is the time (s) spent in the closed arms. Behavioral experiments were recorded and analyzed using an automated tracking system (Video track, View Point Life Science, Montreal, Canada) equipped with infrared lighting-sensitive CCD cameras (Bambico F R et al., 2010).

[1] = 2.5-3 hours after administration, 5 min EPMT

CC(=O)N(CCN(c1ccc(F)cc1)c1cccc(Br)c1)C(=O)OCOC(=O)CN.Cl [Prodrug D, ((acetyl(2-((3-bromophenyl)(4-fluorophenyl)amino)ethyl)carbamoyl)oxy)methyl 2-aminoacetate hydrochloride]
AUC of withdrawal threshold vs. UCM924, t-test p (neuropathic (SNI) rats): 0.015 | Area Under the Curve (AUC) of withdrawal threshold vs. vehicle, Bonferroni p (FIG. 1B) (neuropathic (SNI) rats): < 0.0001 | withdrawal threshold over time vs. vehicle (two-way ANOVA, FIG. 1A) (neuropathic (SNI) rats; 0.5-8 h): significantly increased the withdrawal threshold | withdrawal threshold vs. vehicle, Bonferroni post-hoc p (neuropathic (SNI) rats; after 3, 4, 5 and 6 hours): < 0.0001 | withdrawal threshold vs. vehicle, Bonferroni post-hoc p (neuropathic (SNI) rats; after 1 hour): 0.05 | withdrawal threshold vs. precursor UCM924, Bonferroni post-hoc p (neuropathic (SNI) rats; hour 5): < 0.001 | withdrawal threshold vs. precursor UCM924, Bonferroni post-hoc p (neuropathic (SNI) rats; hour 6): < 0.0001 | solubility (Solubility of Prodrug D; aqueous with cosolvent or surfactant or cyclodextrin, in PEG400:water 40%:60% mixture): > 125 mg/mL | solubility (Solubility of Prodrug D; in water): > 150 mg/mL | overall effect in the EPMT (mice (C57/BL)): antianxiety effects | closed arm time, median (mice (C57/BL); [1]): 222.8, n = 8 | entries to open, median (mice (C57/BL); [1]): 11.00, n = 8 | open arm time, median (mice (C57/BL); [1]): 56.30, n = 8 | total distance, median (mice (C57/BL); [1]): 1521, n = 8 | closed arm time, difference between medians: Actual (mice (C57/BL); VEH minus Prodrug D (column A)): 25.75 | entries to open, difference between medians: Actual (mice (C57/BL); VEH minus Prodrug D (column A)): −2 | open arm time, difference between medians: Actual (mice (C57/BL); VEH minus Prodrug D (column A)): −30.85 | total distance, difference between medians: Actual (mice (C57/BL); VEH minus Prodrug D (column A)): −2.35 | closed arm time, difference between medians: Hodges-Lehmann (mice (C57/BL); VEH vs. Prodrug D): 29.45 | entries to open, difference between medians: Hodges-Lehmann (mice (C57/BL); VEH vs. Prodrug D): −2.5 | open arm time, difference between medians: Hodges-Lehmann (mice (C57/BL); VEH vs. Prodrug D): −25.9 | total distance, difference between medians: Hodges-Lehmann (mice (C57/BL); VEH vs. Prodrug D): −116.6
